Data as given in patent publication US9580437B2, “Triazolopyrimidine compounds and uses thereof” (Novartis AG, priority 2014, dated 2017).
pIC50: −log10 of the molar value.

Columns and labels:
[1] = biological target: wild type PRC2 (wtPRC2) complex (Homo sapiens (Human), UniProt O75530); assay: EED LC-MS assay; format: biochemical; conditions: read-out: (b) IC50 EED LC-MS Qualified
Method: A 6 μL solution of 3 μM of the peptide substrate H3K27Me0 (histone H3[21-44]-biotin) in reaction buffer was added to initiate each reaction. […] ELISA (H3K27 Methylation) Assay

EED (1-441)-His protein = EED (1-441)-His protein (Homo sapiens (Human), UniProt O75530); assay: EED-H3K27Me3 peptide competition binding assay by AlphaScreen; conditions: read-out: (a) IC50 EED Alphascreen binding Qualified
Chain of EED (1-441)-His protein (O75530 whole entry): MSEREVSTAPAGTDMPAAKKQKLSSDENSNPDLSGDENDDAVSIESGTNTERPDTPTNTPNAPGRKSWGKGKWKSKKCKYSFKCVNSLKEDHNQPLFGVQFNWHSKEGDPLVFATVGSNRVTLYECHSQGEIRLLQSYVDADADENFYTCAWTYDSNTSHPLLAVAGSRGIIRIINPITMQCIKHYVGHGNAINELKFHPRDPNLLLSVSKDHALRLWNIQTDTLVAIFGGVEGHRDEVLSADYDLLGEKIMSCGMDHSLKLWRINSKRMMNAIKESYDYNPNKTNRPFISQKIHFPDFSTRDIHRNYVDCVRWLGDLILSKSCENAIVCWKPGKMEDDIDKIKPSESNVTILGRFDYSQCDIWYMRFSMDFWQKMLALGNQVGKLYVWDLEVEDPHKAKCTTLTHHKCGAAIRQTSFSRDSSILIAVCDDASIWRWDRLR
From the text: EED-H3K27Me3 peptide competition binding assay by AlphaScreen (α-screen)

Chain of wild type PRC2 (wtPRC2) complex (O75530 whole entry): as above
Chain of wild type PRC2 (wtPRC2) complex (Q15910 whole entry partner): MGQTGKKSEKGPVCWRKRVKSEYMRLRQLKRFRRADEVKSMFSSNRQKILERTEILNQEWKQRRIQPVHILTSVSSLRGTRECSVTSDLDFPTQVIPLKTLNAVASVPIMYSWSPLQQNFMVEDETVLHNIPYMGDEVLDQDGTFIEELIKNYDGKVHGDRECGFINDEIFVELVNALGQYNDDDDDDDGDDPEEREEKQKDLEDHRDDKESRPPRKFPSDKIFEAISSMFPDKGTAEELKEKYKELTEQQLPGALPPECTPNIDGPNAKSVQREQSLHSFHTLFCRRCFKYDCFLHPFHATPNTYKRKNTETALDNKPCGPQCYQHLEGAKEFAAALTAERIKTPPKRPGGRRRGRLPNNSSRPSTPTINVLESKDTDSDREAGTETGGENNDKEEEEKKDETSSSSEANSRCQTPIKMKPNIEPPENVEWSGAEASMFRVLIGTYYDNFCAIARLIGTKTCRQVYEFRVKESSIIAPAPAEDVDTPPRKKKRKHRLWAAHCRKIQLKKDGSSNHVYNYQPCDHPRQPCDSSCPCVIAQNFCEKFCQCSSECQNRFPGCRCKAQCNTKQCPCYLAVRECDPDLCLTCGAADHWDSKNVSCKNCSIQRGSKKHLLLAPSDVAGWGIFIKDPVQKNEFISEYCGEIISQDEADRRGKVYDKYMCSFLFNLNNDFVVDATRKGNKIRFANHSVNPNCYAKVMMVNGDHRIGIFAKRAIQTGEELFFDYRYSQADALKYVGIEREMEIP
Chain of wild type PRC2 (wtPRC2) complex (Q15022 whole entry partner): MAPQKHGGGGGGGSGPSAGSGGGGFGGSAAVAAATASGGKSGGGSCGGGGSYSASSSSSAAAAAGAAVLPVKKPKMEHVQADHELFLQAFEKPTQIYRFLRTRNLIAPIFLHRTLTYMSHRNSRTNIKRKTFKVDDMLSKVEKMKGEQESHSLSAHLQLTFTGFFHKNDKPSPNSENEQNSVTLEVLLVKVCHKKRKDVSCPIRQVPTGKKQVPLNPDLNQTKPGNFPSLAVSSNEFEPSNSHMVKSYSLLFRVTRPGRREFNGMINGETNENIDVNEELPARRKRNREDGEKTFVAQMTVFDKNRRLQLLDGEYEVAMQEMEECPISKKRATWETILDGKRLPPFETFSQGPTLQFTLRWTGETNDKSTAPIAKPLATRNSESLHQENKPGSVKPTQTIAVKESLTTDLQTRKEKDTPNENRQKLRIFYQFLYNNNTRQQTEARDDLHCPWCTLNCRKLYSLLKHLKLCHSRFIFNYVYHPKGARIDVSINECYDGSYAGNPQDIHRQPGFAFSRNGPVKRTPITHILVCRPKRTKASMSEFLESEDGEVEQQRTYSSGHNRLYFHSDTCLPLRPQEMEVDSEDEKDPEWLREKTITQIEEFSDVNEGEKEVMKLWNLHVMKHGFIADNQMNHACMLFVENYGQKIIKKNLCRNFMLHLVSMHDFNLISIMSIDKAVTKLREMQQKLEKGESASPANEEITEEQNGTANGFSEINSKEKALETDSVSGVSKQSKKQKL

Structure (SMILES)	pIC50 [1]	pIC50 (EED (1-441)-His protein)
Fc1ccc2c(c1CNc1ncc(-c3cncnc3)c3nncn13)CCO2 [Example 206, N-((5-fluoro-2,3-dihydrobenzofuran-4-yl)methyl)-8-(pyrimidin-5-yl)-[1,2,4]triazolo[4,3-c]pyrimidin-5-amine]	8.02	8.04
CN(C)Cc1ccc(-c2cnc(NCc3cccc4occc34)n3cnnc23)cc1 [Example 208, N-(benzofuran-4-ylmethyl)-8-(4-((dimethylamino)methyl)phenyl)-[1,2,4]triazolo[4,3-c]pyrimidin-5-amine]	7.90	8.21
CN1CCN(c2ccc(-c3cnc(NCc4cccc5occc45)n4cnnc34)cc2)CC1 [Example 209, N-(benzofuran-4-ylmethyl)-8-(4-(4-methylpiperazin-1-yl)phenyl)-[1,2,4]triazolo[4,3-c]pyrimidin-5-amine]	7.54	7.43
CC(c1ccc(-c2cnc(NCc3cccc4occc34)n3cnnc23)cc1)N1CCCC1 (stereo not shown) [Example 210, N-(benzofuran-4-ylmethyl)-8-(4-(1-(pyrrolidin-1-yl)ethyl)phenyl)-[1,2,4]triazolo[4,3-c]pyrimidin-5-amine]	7.67	7.73
CN1CCN(c2ccc(-c3cnc(NCc4cccc5occc45)n4cnnc34)cn2)CC1 [Example 211, N-(benzofuran-4-ylmethyl)-8-(6-(4-methylpiperazin-1-yl)pyridin-3-yl)-[1,2,4]triazolo[4,3-c]pyrimidin-5-amine]	7.54	7.49
CN1CCN(c2cc(-c3cnc(NCc4cccc5occc45)n4cnnc34)ccn2)CC1 [Example 212, N-(benzofuran-4-ylmethyl)-8-(2-(4-methylpiperazin-1-yl)pyridin-4-yl)-[1,2,4]triazolo[4,3-c]pyrimidin-5-amine]	7.47	7.51
c1cncc(-c2cnc(NCc3cccc4occc34)n3cnnc23)c1 [Example 213, N-(benzofuran-4-ylmethyl)-8-(pyridin-3-yl)-[1,2,4]triazolo[4,3-c]pyrimidin-5-amine]	7.59	7.44
CS(=O)(=O)c1ccc(-c2cnc(NCc3cccc4occc34)n3cnnc23)cc1 [Example 214, N-(benzofuran-4-ylmethyl)-8-(4-(methylsulfonyl)phenyl)-[1,2,4]triazolo[4,3-c]pyrimidin-5-amine]	7.65	7.43
CC(C)S(=O)(=O)c1ccc(-c2cnc(NCc3cccc4occc34)n3cnnc23)cc1 [Example 215, N-(benzofuran-4-ylmethyl)-8-(4-(isopropylsulfonyl)phenyl)-[1,2,4]triazolo[4,3-c]pyrimidin-5-amine]	7.67	7.69
O=C(c1ccc(-c2cnc(NCc3cccc4occc34)n3cnnc23)cc1)N1CCCC1 [Example 216, (4-(5-((benzofuran-4-ylmethyl)amino)-[1,2,4]triazolo[4,3-c]pyrimidin-8-yl)phenyl)(pyrrolidin-1-yl)methanone]	6.74	6.88
c1ccc(-c2cnc(NCc3cccc4occc34)n3cnnc23)cc1 [Example 217, N-(benzofuran-4-ylmethyl)-8-phenyl-[1,2,4]triazolo[4,3-c]pyrimidin-5-amine]	6.95	6.44
c1cc(CNc2ncc(-c3ccncc3)c3nncn23)c2ccoc2c1 [Example 218, N-(benzofuran-4-ylmethyl)-8-(pyridin-4-yl)-[1,2,4]triazolo[4,3-c]pyrimidin-5-amine]	7.58	7.41
CN(C)Cc1ccc(-c2cnc(NCc3c(F)ccc4occc34)n3cnnc23)cc1 [Example 219, 8-(4-((dimethylamino)methyl)phenyl)-N-((5-fluorobenzofuran-4-yl)methyl)-[1,2,4]triazolo[4,3-c]pyrimidin-5-amine]	8.17	8.19
CN1CCC(S(=O)(=O)c2ccc(-c3cnc(NCc4cccc5occc45)n4cnnc34)cc2)CC1 [Example 220, N-(benzofuran-4-ylmethyl)-8-(4-((1-methylpiperidin-4-yl)sulfonyl)phenyl)-[1,2,4]triazolo[4,3-c]pyrimidin-5-amine]	7.67	7.85
Cc1cc(C)c(-c2cnc(NCc3c(F)ccc4c3CCO4)n3cnnc23)cn1 [Example 222, 8-(4,6-dimethylpyridin-3-yl)-N-((5-fluoro-2,3-dihydrobenzofuran-4-yl)methyl)-[1,2,4]triazolo[4,3-c]pyrimidin-5-amine]	7.85	7.93
Cc1nc(CN(C)C)ccc1-c1cnc(NCc2c(F)ccc3c2CCO3)n2cnnc12 [Example 223, 8-(6-((dimethylamino)methyl)-2-methylpyridin-3-yl)-N-((5-fluoro-2,3-dihydrobenzofuran-4-yl)methyl)-[1,2,4]triazolo[4,3-c]pyrimidin-5-amine]	7.74	8.08

Structure (SMILES)	pIC50 [1]	pIC50 (EED (1-441)-His protein)
CCc1cc(C)c(-c2cnc(NCc3c(F)ccc4c3CCO4)n3cnnc23)cn1 [Example 224, 8-(6-ethyl-4-methylpyridin-3-yl)-N-((5-fluoro-2,3-dihydrobenzofuran-4-yl)methyl)-[1,2,4]triazolo[4,3-c]pyrimidin-5-amine]	8.72	8.82
Cc1nc(OC2CC2)ncc1-c1cnc(NCc2c(F)ccc3c2CCO3)n2cnnc12 [Example 225, 8-(2-cyclopropoxy-4-methylpyrimidin-5-yl)-N-((5-fluoro-2,3-dihydrobenzofuran-4-yl)methyl)-[1,2,4]triazolo[4,3-c]pyrimidin-5-amine]	7.97	8.12
CCOc1ncc(-c2cnc(NCc3c(F)ccc4c3CCO4)n3cnnc23)c(C)n1 [Example 226, 8-(2-ethoxy-4-methylpyrimidin-5-yl)-N-((5-fluoro-2,3-dihydrobenzofuran-4-yl)methyl)-[1,2,4]triazolo[4,3-c]pyrimidin-5-amine]	8.30	8.41
Cn1ncc(-c2cnc(NCc3c(F)ccc4c3CCO4)n3cnnc23)c1CO [Example 227, (4-(5-(((5-fluoro-2,3-dihydrobenzofuran-4-yl)methyl)amino)-[1,2,4]triazolo[4,3-c]pyrimidin-8-yl)-1-methyl-1H-pyrazol-5-yl)methanol]	8.12	8.21
Cc1cnc(Cl)cc1-c1cnc(NCc2c(F)ccc3c2CCO3)n2cnnc12 [Example 228, 8-(2-chloro-5-methylpyridin-4-yl)-N-((5-fluoro-2,3-dihydrobenzofuran-4-yl)methyl)-[1,2,4]triazolo[4,3-c]pyrimidin-5-amine]	8.05	8.09
CCc1ccc(-c2cnc(NCc3c(F)ccc4c3CCO4)n3cnnc23)c(C)n1 [Example 229, 8-(6-ethyl-2-methylpyridin-3-yl)-N-((5-fluoro-2,3-dihydrobenzofuran-4-yl)methyl)-[1,2,4]triazolo[4,3-c]pyrimidin-5-amine]	8.17	8.23
COc1nccc(-c2cnc(NCc3c(F)ccc4c3CCO4)n3cnnc23)c1C [Example 230, N-((5-fluoro-2,3-dihydrobenzofuran-4-yl)methyl)-8-(2-methoxy-3-methylpyridin-4-yl)-[1,2,4]triazolo[4,3-c]pyrimidin-5-amine]	7.61	7.89
Fc1ccc2c(c1CNc1ncc(-c3ccccn3)c3nncn13)CCO2 [Example 231, N-((5-fluoro-2,3-dihydrobenzofuran-4-yl)methyl)-8-(pyridin-2-yl)-[1,2,4]triazolo[4,3-c]pyrimidin-5-amine]	8.22	8.21
Cc1cncc(-c2cnc(NCc3c(F)ccc4c3CCO4)n3cnnc23)c1 [Example 232, N-((5-fluoro-2,3-dihydrobenzofuran-4-yl)methyl)-8-(5-methylpyridin-3-yl)-[1,2,4]triazolo[4,3-c]pyrimidin-5-amine]	7.88	8.21
Cc1cn(-c2cnc(NCc3c(F)ccc4c3CCO4)n3cnnc23)cn1 [Example 233, N-((5-fluoro-2,3-dihydrobenzofuran-4-yl)methyl)-8-(4-methyl-1H-imidazol-1-yl)-[1,2,4]triazolo[4,3-c]pyrimidin-5-amine]	7.94	8.41
OCc1ccc(-c2cnc(NCc3c(F)ccc4c3CCO4)n3cnnc23)cn1 [Example 234, (5-(5-(((5-fluoro-2,3-dihydrobenzofuran-4-yl)methyl)amino)-[1,2,4]triazolo[4,3-c]pyrimidin-8-yl)pyridin-2-yl)methanol]	7.95	8.27
Fc1ccc2c(c1CNc1ncc(F)c3nncn13)CCO2 [Example 235, 8-fluoro-N-((5-fluoro-2,3-dihydrobenzofuran-4-yl)methyl)-[1,2,4]triazolo[4,3-c]pyrimidin-5-amine]	7.19	7.40
Cc1cn(-c2cnc(NCc3c(F)ccc4c3CCO4)n3cnnc23)c(C)n1 [Example 236, 8-(2,4-dimethyl-1H-imidazol-1-yl)-N-((5-fluoro-2,3-dihydrobenzofuran-4-yl)methyl)-[1,2,4]triazolo[4,3-c]pyrimidin-5-amine]	7.63	7.99
Fc1ccc2c(c1CNc1ncc(-n3cccn3)c3nncn13)CCO2 [Example 237, N-((5-fluoro-2,3-dihydrobenzofuran-4-yl)methyl)-8-(1H-pyrazol-1-yl)-[1,2,4]triazolo[4,3-c]pyrimidin-5-amine]	8.00	8.51
Cc1ncn(-c2cnc(NCc3c(F)ccc4c3CCO4)n3cnnc23)n1 [Example 238, N-((5-fluoro-2,3-dihydrobenzofuran-4-yl)methyl)-8-(3-methyl-1H-1,2,4-triazol-1-yl)-[1,2,4]triazolo[4,3-c]pyrimidin-5-amine]	7.84	8.33
Cc1cnn(-c2cnc(NCc3c(F)ccc4c3CCO4)n3cnnc23)c1 [Example 239, N-((5-fluoro-2,3-dihydrobenzofuran-4-yl)methyl)-8-(4-methyl-1H-pyrazol-1-yl)-[1,2,4]triazolo[4,3-c]pyrimidin-5-amine]	7.80	8.17
